Where two headings read alike, the source gives them in different places.

Results on 51 compounds are retold here after patent publication US20160075653A1, “NEMATICIDAL N-(PHENYLCYCLOALKYL)CARBOXAMIDES AND N-(PHENYLCYCLOALKYL)THIOCARBOXAMIDES” (BAYER CROPSCIENCE AKTIENGESELLSCHAFT, priority 2013, published 2016).

One series has as its system Meloidogyne incognita. Nature of the series: Meloidogyne incognita test (MELGIN), gall formation on salad seedlings. Format: in vivo. Conditions: application rate 20 ppm, after 14 days. How it is done:
Meioidovnve incomita—Test (MELGIN)
Solvent: 125.0 parts by weight of acetone
To produce a suitable preparation of active compound, 1 part by weight of active compound is mixed with the stated amount of solvent, and the concentrate is diluted with water to the desired concentration.
Vessels are filled with sand, a solution of the active ingredient, a suspension containing eggs and larvae of the southern root-knot nematode (Meloidogyne incognita) and salad seeds. The salad seeds germinate and the seedlings grow. Galls develop in the roots.
After 14 days the nematicidal activity is determined on the basis of the percentage of gall formation. 100% means that no galls were found; 0% means the number of galls found on the roots of the treated plants was equal to that in untreated control plants.

Series [1] can be described thus: Measurement of log P values by HPLC on reversed phase columns (methods [a] pH 2.3, [b] pH 2.7, [c] pH 7.8). Conditions: for chromatographic logP: reversed phase HPLC columns, read-out: logP. It counts as physicochemical. An outline of the steps: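 Retention times were converted to log P by linear interpolation between linear alkan-2-one standards (3 to 16 carbons) of known log P. Eluents, each with 10% to 95% acetonitrile gradient: phosphoric acid 0.1% at pH 2.3 [a]; formic acid 0.1% at pH 2.7, LC-MS [b]; ammonium hydrogen carbonate 0.001 molar at pH 7.8, LC-MS [c].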

[2] abbreviates: HPLC on reversed phase columns, method [b], pH 2.7.
Setting [3] is: HPLC reversed phase, method [b] (pH 2.7).
Where [4] appears, read: HPLC reversed phase, method [c] pH 7.8.
Setting [5] is: method [b], HPLC reversed phase, pH 2.7.
The mark [6] stands for this setting: HPLC on reversed phase column, method [b], pH 2.7.
Setting [7] is: HPLC on reversed phase column, method [c], pH 7.8.

Take `CCCOc1ccccc1C(=O)N[C@@H]1CCC[C@@H]1c1ccc(F)c(F)c1` (relative stereo) [Compound 86]: the “nematicidal activity (percentage of gall formation; 100% = no galls)” value in the series on Meloidogyne incognita came to 90%. Besides, the logP in series [1] (setting [2]) was 4.19^[b].
Regarding `O=C(N[C@@H]1CC[C@@H]1c1c(F)cccc1C(F)(F)F)c1ccccc1[N+](=O)[O-]` (relative stereo) [Compound 561], the “nematicidal activity (percentage of gall formation; 100% = no galls)” value with Meloidogyne incognita is recorded as 100%. For the same compound, the logP in series [1] (setting [3]) was 3.03^[b].
As to `O=C(NC1CC1c1ccc(Cl)cc1)c1cccnc1C(F)F` (stereo not drawn) [Compound 465], the “nematicidal activity (percentage of gall formation; 100% = no galls)” value in the series with Meloidogyne incognita worked out at 100%. Further, the logP was 2.15^[b] in series [1] (setting [3]) and 2.14^[c]; in series [1] (setting [4]).
For the compound `O=C(N[C@@H]1CC[C@@H]1c1ccccc1Cl)c1c(F)cccc1F` (relative stereo) [Compound 252], the “nematicidal activity (percentage of gall formation; 100% = no galls)” value in the series with Meloidogyne incognita was determined as 100%. The logP in series [1] (setting [3]) was 2.86^[b].
Take `Cn1cc(C(=O)NC2CC2c2ccc(Cl)cc2)c(C(F)(F)F)n1` (stereo not drawn) [Compound 11]: the “nematicidal activity (percentage of gall formation; 100% = no galls)” value with Meloidogyne incognita is given as 90%. Also, in series [1] (setting [2]), the logP was 3.43^[b].
Regarding `O=C(NC1CCC1c1ccccc1C(F)(F)F)c1ccc(Cl)cc1Cl` (stereo not drawn) [Compound 217], the “nematicidal activity (percentage of gall formation; 100% = no galls)” value in the series on Meloidogyne incognita is given as 90%. In series [1] (setting [5]), the logP is 3.81^[b].
For `O=C(NC1CCC1c1ccc(Cl)cc1Cl)c1cccnc1C(F)(F)F` (stereo not drawn) [Compound 481], the “nematicidal activity (percentage of gall formation; 100% = no galls)” value in the series with Meloidogyne incognita was determined as 100%. For the same compound, in series [1] (setting [3]), the logP is 3.20^[b].
The corresponding values for `O=C(N[C@@H]1CC[C@@H]1c1ccc(F)cc1C(F)(F)F)c1cccnc1` (relative stereo) [Compound 523] are 90% and 2.18^[b].
Taken in the same sequence, the figures for `O=C(N[C@@H]1CC[C@H]1c1ccc(F)cc1C(F)(F)F)c1ccccc1Br` (relative stereo) [Compound 501] were 100% and 3.64^[b].
Taken in the same sequence, the figures for `O=C(N[C@@H]1CC[C@@H]1c1cc(F)ccc1C(F)(F)F)c1ccccc1C(F)(F)F` (relative stereo) [Compound 586] were 100% and 3.53^[b].
In the case of `O=C(N[C@@H]1CC[C@@H]1c1cc(F)ccc1C(F)(F)F)c1ccccc1I` (relative stereo) [Compound 541], in the series with Meloidogyne incognita, the “nematicidal activity (percentage of gall formation; 100% = no galls)” value turned out to be 100%. The logP in series [1] (setting [3]) is 3.52^[b].
Taken in the same sequence, the figures for `O=C(NC1CCC1c1ccc(F)cc1C(F)(F)F)c1ncccc1Cl` (stereo not drawn) [Compound 479] were 100% and 3.11^[b].
As for `O=C(NC1CCC1c1ccccc1C(F)(F)F)c1ncccc1Cl` (stereo not drawn) [Compound 215], in the series with Meloidogyne incognita, the “nematicidal activity (percentage of gall formation; 100% = no galls)” value is listed as 90%. Moreover, the logP in series [1] (setting [5]) was 3.01^[b].
Turning to `O=C(N[C@@H]1CC[C@@H]1c1cccc(F)c1C(F)(F)F)c1ccccc1` (relative stereo) [Compound 592], the “nematicidal activity (percentage of gall formation; 100% = no galls)” value with Meloidogyne incognita was determined as 100%. For the same compound, in series [1] (setting [6]), the logP is 3.01^[b].
On to `O=C(NC1CCC1c1cc(F)ccc1C(F)(F)F)c1cccc(Cl)c1` (stereo not drawn) [Compound 517], for which the “nematicidal activity (percentage of gall formation; 100% = no galls)” value with Meloidogyne incognita worked out at 100%. For the same compound, the logP in series [1] (setting [3]) is 3.65^[b].
As to `O=C(NC1CCCCC1c1ccccc1Cl)c1ccccc1Cl` (stereo not drawn) [Example 381], in series [1] (setting [3]), the logP was 3.88^[b].
On to `Cn1nc(C(F)F)c(C(=O)NC2CC2c2ccc(Cl)cc2)c1F` (stereo not drawn) [Example 179], for which, in series [1] (setting [5]), the logP was 2.61^[b].
As to `Cc1cccnc1C(=O)N[C@@H]1CCC[C@@H]1c1ccc(F)c(F)c1` (relative stereo) [Example 64], the logP in series [1] (setting [2]) was 3.31^[b].
Take `O=C(NC1CC1c1ccc(Cl)cc1)c1ccccc1C(F)(F)F` (stereo not drawn) [Example 201]: the logP in series [1] (setting [5]) is 3.27^[b]; in series [1] (method [c], HPLC reversed phase, pH 7.8), 3.21^[c];.
In the case of `CC(C)Oc1ccc([C@H]2CCC[C@H]2NC(=O)c2ccccc2C(F)(F)F)cc1` (relative stereo) [Example 325], the logP in series [1] (setting [3]) is 3.90^[b]; in series [1] (setting [4]), 3.84^[c];.
On to `O=C(N[C@@H]1C[C@@H]1c1ccc(Cl)cc1Cl)c1ccccc1Cl` (relative stereo) [Compound 580], for which the logP in series [1] (setting [3]) was 3.27^[b].
Take `CCc1nn(C)c(F)c1C(=O)N(C1CC1)C1CCCCC1c1ccccc1` (stereo not drawn) [Example 144]: the logP in series [1] (setting [5]) was 3.83^[b].
As to `O=C(NC1CC1c1ccc(F)cc1)c1cnc(Cl)cc1Cl` (stereo not drawn) [Example 36], in series [1] (setting [2]), the logP was 2.70^[b].
`Cc1nn(C)c(F)c1C(=O)N(C1CC1)C1CCCC1c1ccc(Cl)cc1Cl` (stereo not drawn) [Example 159]: the logP in series [1] (setting [5]) is 4.18^[b].
Regarding `O=C(N[C@@H]1CC[C@H]1c1cccc(F)c1C(F)(F)F)c1cccnc1Cl` (relative stereo) [Example 648], the logP in series [1] (setting [6]) was 2.86^[b].
Still for that read-out and setting: the figure for `O=C(N[C@@H]1CC[C@H]1c1ccc(Cl)cc1C(F)(F)F)c1ncc(C(F)(F)F)cc1Cl` (relative stereo) [Example 700] is 4.65^[b].
`O=C(N[C@@H]1CC[C@H]1c1ccccc1C(F)(F)F)c1ccccc1I` [Example 497]: the chromatographic logP in series [1] (pH 2.7, HPLC reversed phase, method [b] (pH 2.7)) was 3.61.
In the case of `O=C(N[C@@H]1CC[C@@H]1c1cccc(F)c1C(F)(F)F)c1ncc(C(F)(F)F)cc1Cl` (relative stereo) [Example 603], the logP in series [1] (setting [6]) was 3.81^[b].
Regarding `O=C(NC1CCC1c1ccccc1C(F)(F)F)c1ncccc1Br` (stereo not drawn) [Example 605], the logP was 3.17^[b] in series [1] (setting [6]) and 3.10^[c]; in series [1] (setting [7]).
Regarding `O=C(N[C@@H]1CC[C@@H]1c1ccc(Cl)cc1C(F)(F)F)c1nccnc1Cl` (relative stereo) [Example 717], the logP in series [1] (setting [2]) is 3.24^[b].
As for `O=C(NC1CCCCC1c1c(F)cccc1F)c1ccccc1Cl` (stereo not drawn) [Example 396], the logP in series [1] (setting [3]) is 3.68^[b].
Regarding `O=C(N[C@@H]1CCC[C@@H]1c1ccccc1F)c1ccc(I)s1` (relative stereo) [Compound 337], the logP is 3.70^[b] in series [1] (setting [3]) and 3.58^[c]; in series [1] (setting [4]).
`O=C(NC1CC1c1ccccc1)c1cccnc1C(F)F` (stereo not drawn) [Compound 225]: the “nematicidal activity (percentage of gall formation; 100% = no galls)” value in the series on Meloidogyne incognita was determined as 90%.
In the case of `Cc1nn(C)cc1C(=O)NC1CCCC1c1ccc(Cl)cc1Cl` (stereo not drawn) [Example 359], in series [1] (setting [3]), the logP is 2.67^[b].
As to `Cc1ncncc1C(=O)N[C@@H]1CCC[C@H]1c1ccc(F)c(F)c1` (relative stereo) [Example 104], in series [1] (setting [2]), the logP is 2.21^[b].
In the case of `O=C(N[C@@H]1CC[C@@H]1c1ccc(Cl)cc1C(F)(F)F)c1cccc(Cl)c1` (relative stereo) [Example 709], the logP in series [1] (setting [6]) was 4.05^[b].
For the compound `O=C(N[C@@H]1CC[C@H]1c1ccc(Br)cc1C(F)(F)F)c1ccccc1C(F)(F)F` (relative stereo) [Example 655], the logP is 4.26^[b] in series [1] (setting [6]) and 4.19^[c]; in series [1] (setting [7]).
As for `O=C(N[C@@H]1CCC[C@@H]1c1ccc(F)c(F)c1)c1cccnc1F` (relative stereo) [Example 68], in series [1] (setting [2]), the logP is 2.76^[b].
Turning to `O=C(NC1CCCCC1c1ccccc1Cl)c1c(F)cccc1F` (stereo not drawn) [Example 379], the logP in series [1] (setting [3]) was 3.67^[b].
Consider `O=C(N[C@@H]1CC[C@@H]1c1c(Cl)cccc1Cl)c1sccc1I` [Example 745], for which, in series [1] (pH 2.7, HPLC on reversed phase columns, method [b] (pH 2.7)), the chromatographic logP came to 4.21.
For `O=C(N[C@@H]1CCC[C@@H]1c1ccc(C(F)(F)F)cc1)c1c(F)cccc1F` (relative stereo) [Example 304], the logP in series [1] (setting [3]) is 3.51^[b]; in series [1] (setting [4]), 3.47^[c];.
`O=C(N[C@@H]1CC[C@@H]1c1ccc(Br)cc1C(F)(F)F)c1cccnc1C(F)(F)F` (relative stereo) [Example 657]: the values for the logP in series [1] (setting [6]) and in series [1] (setting [7]) were 3.52^[b] and 3.42^[c];, respectively.
As for `N#Cc1ncccc1C(=O)N[C@@H]1CCC[C@H]1c1ccc(F)c(F)c1` (relative stereo) [Example 110], the logP in series [1] (setting [2]) is 3.31^[b].
Take `O=C(NC1CCC1c1ccc(Cl)cc1C(F)(F)F)c1sccc1I` (stereo not drawn) [Example 710]: the logP in series [1] (setting [6]) was 4.55^[b].
Turning to `O=C(NC1CCCCC1c1ccccc1Br)c1c(F)cccc1F` (stereo not drawn) [Example 404], the logP in series [1] (setting [3]) is 3.78^[b].
As to `Cn1cc(C(=O)NC2CCC2c2ccc(Cl)cc2C(F)(F)F)c(C(F)F)n1` (stereo not drawn) [Example 718], the logP in series [1] (setting [2]) is 3.41^[b].
As for `O=C(N[C@@H]1CC[C@@H]1c1cc(F)ccc1C(F)(F)F)c1ccc(Cl)cc1` (relative stereo) [Example 527], the logP in series [1] (setting [3]) is 3.63^[b].
`O=C(NC1CC1(F)c1ccc(Cl)cc1)c1ccccc1C(F)(F)F` (stereo not drawn) [Example 754]: the logP in series [1] (setting [2]) was 3.24^[b].
For `O=C(N[C@@H]1C[C@H]1c1ccccc1)c1c(Cl)cccc1Cl` (relative stereo) [Example 47], the logP in series [1] (setting [2]) is 2.99^[b].
With `O=C(NC1CCCCC1c1ccccc1Cl)c1ccccc1I` (stereo not drawn) [Example 382], the logP in series [1] (setting [3]) was 4.02^[b].
Take `CC1=C(C(=O)N[C@@H]2C[C@@H]2c2ccc(Cl)cc2Cl)S(=O)(=O)CCO1` (relative stereo) [Example 614]: the results for the logP in series [1] (setting [6]) and in series [1] (setting [7]) were 2.40^[b] and 2.33^[c];, respectively.
